Results as given in patent USRE43005E1, “Compositions and methods for their preparation from lepidium” (Naturex Inc., priority 1999, dated 2011).

SMILES	melting point
CCCCCCCC(=O)NCc1ccccc1 [MA-3, N-benzyl octanamide]	76 to 78 °C
CCC(=O)/C=C/C=C/C=C/C(=O)CCCCCCCC(=O)NCc1ccccc1 [MA-9, N-benzyl-9,16-dioxo-10E,12E,14E-octadecatrienamide]	115 to 116 °C
